# Active and inactive are the calls of the source.
# Key:
# [1] = A High Throughput Confirmatory Assay used to Identify Novel Compounds that Inhibit Mycobacterium Tuberculosis in the absence of Glycerol.; type: functional
# cells [2] = experiment: cells
# [3] = molecular target: T1, Neuropeptide Y receptor type 1 (Homo sapiens, UniProt P25929); experiment: NPY-Y1 receptor antagonist potency, dose response, cell-based (AID 1277); type: functional
# T1 sequence (P25929 whole entry): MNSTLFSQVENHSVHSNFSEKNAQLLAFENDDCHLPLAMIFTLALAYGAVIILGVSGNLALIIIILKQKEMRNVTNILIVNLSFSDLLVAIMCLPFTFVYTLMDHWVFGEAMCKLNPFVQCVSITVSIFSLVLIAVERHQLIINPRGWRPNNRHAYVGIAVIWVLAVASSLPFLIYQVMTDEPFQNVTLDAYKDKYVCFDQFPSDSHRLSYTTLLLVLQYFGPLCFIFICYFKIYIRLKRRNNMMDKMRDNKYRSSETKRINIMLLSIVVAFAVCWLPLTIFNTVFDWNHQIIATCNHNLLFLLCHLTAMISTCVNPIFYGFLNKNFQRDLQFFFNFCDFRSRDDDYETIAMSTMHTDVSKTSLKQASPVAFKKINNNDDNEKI
# [4] = molecular target: T2, Neuropeptide Y receptor type 2 (Homo sapiens, UniProt P49146); experiment: NPY-Y2 antagonist potency, selectivity check, dose response, counter-screen for NPY-Y1 antagonist project, cell-based (AID 1278); type: functional
# T2 sequence (P49146 whole entry): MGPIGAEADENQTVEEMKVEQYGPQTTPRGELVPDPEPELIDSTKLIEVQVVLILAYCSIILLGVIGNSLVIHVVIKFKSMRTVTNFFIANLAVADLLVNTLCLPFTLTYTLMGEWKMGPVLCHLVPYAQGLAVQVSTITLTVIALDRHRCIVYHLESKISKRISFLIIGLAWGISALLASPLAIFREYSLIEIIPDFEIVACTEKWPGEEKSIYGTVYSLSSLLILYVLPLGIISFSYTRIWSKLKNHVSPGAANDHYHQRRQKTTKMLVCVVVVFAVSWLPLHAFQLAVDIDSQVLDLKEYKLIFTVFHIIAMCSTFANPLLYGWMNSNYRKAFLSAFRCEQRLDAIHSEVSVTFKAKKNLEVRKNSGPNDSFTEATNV
# H4 = experiment: Luminescence Cell-Based Dose Response HTS to Identify Activators of 5'UTR Stem-Loop Driven Prion Protein mRNA Translation in H4 Neuroglioblastoma Cells. [Related pubchem assays: 1829 (Project Summary), 1814 (Primary HTS)]; type: functional; details: Homo sapiens
# [5] = Luminescence Cell-Based Dose Response to Identify Activators of Luciferase Translation or Activity in H4-C Neuroglioblastoma Cells. [Related pubchem assays: 1829 (Project Summary), 1814 (Primary HTS)]; type: functional
# [6] = Luminescence Cell-Based Dose Response to Identify Activators of 5'UTR Stem-Loop Driven Prion Protein mRNA Translation in H4-C Neuroglioblastoma Cells. [Related pubchem assays: 1829 (Project Summary), 1814 (Primary HTS)]; type: functional
# [7] = Luminescence Cell-Based Dose Confirmation HTS to Identify Activators of 5'UTR Stem-Loop Driven Alpha-Synuclein mRNA Translation in H4 Neuroglioblastoma Cells. [Related pubchem assays: 1829 (Project Summary), 1814 (Primary HTS)]; type: functional
# Protein skinhead-1 = molecular target: T3, Protein skinhead-1 (Caenorhabditis elegans, UniProt P34707); type: functional
# T3 sequence (P34707 whole entry): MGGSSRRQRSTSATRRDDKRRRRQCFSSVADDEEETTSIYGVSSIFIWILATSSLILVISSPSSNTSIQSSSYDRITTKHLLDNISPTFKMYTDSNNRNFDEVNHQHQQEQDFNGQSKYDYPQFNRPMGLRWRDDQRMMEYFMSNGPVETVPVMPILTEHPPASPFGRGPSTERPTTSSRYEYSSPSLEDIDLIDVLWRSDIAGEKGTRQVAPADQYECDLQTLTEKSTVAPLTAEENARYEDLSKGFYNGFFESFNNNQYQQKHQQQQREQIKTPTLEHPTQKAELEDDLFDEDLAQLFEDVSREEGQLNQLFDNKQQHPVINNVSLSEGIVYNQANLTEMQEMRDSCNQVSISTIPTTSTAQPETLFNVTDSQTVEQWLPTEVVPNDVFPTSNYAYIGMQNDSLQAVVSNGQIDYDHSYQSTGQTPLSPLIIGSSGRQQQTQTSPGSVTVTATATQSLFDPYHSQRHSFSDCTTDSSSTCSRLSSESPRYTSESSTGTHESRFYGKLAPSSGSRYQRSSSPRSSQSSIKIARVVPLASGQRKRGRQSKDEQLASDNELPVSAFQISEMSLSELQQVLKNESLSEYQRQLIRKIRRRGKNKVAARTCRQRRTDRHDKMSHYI
# [8] = Luminescence Cell-Based Dose Response HTS to Identify Activators of Luciferase Translation or Activity in H4 […] Cells. [Related pubchem assays: 1829 (Project Summary), 1814 (Primary HTS)]; type: functional
# HeLa = experiment: HeLa cell cytotoxicity, dose response, cytotoxicity control for MITF activator project, CellTiter-Glo luminescence, cherry-pick samples (AID 540259); type: functional, cell-based; details: Homo sapiens
# [9] = Luminescence Cell-Based Dose Confirmation to Identify Activators of 5'UTR Stem-Loop Driven Alpha-Synuclein mRNA Translation in H4 Neuroglioblastoma Cells. [Related pubchem assays: 1829 (Project Summary), 1814 (Primary HTS)]; type: functional
# cells [10] = experiment: cells; remark: listed apart in the source
# [11] = molecular target: T4, Trace amine-associated receptor 1 (Homo sapiens, UniProt Q96RJ0); experiment: Fluorescence-based cell-based high throughput dose response assay to identify agonists of the human trace amine associated receptor 1 (TAAR1).; type: functional
# T4 sequence (Q96RJ0 whole entry): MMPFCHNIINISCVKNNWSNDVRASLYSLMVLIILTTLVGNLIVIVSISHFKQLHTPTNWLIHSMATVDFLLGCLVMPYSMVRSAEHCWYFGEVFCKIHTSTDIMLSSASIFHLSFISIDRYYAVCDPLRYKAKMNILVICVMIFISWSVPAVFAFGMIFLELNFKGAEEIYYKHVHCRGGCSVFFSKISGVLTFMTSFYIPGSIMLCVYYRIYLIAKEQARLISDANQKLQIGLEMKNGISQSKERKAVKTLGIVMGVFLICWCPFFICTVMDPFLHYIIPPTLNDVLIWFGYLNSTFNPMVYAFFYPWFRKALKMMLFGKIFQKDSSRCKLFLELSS
# cells [12] = type: functional, cell-based
# [13] = inhibitors of intracellular T. cruzi replication, confirmation, NIH3T3 host cells, beta-gal luminescence (AID 2044); type: functional, cell-based;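 further: intracellular parasites grown in NIH/3T3 mouse fibroblasts as host cells; luminescent beta-galactosidase reporter signal from transgenic T. cruzi replicating inside host cells; inhibitors lower the luminescence signal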
# cells [14] = type: functional, cell-based; remark: listed apart in the source
# [15] = molecular target: T4, Trace amine-associated receptor 1; experiment: Counterscreen for agonists of the human trace amine associated receptor 1 (hTAAR1): Fluorescence-based cell-based high throughput dose response assay to identify hTAAR1 agonist that also desensitize TAAR1 receptor response.; type: functional
# [16] = cytotoxicity toward NIH3T3 fibroblasts, dose response, counter-screen, cell-based, ATP luminescence, mouse fibroblasts (AID 2010); type: functional;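 further: cells exposed to compound for about 90 hours before reading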
# Vero = experiment: cells; type: functional, cell-based; details: Chlorocebus sabaeus
# [17] = molecular target: T5, Voltage-gated N-type calcium channel alpha-1B subunit/Amyloid beta A4 precursor protein-binding family A member 1 (Homo sapiens, UniProt Q00975+Q02410); type: protein assay
# [18] = molecular target: T6, Mannose-6-phosphate isomerase (Homo sapiens, UniProt P34949); experiment: inhibitors of human PMI, primary screen, biochemical, fluorescence intensity, coupled assay (AID 1209)
# T6 sequence (P34949 whole entry): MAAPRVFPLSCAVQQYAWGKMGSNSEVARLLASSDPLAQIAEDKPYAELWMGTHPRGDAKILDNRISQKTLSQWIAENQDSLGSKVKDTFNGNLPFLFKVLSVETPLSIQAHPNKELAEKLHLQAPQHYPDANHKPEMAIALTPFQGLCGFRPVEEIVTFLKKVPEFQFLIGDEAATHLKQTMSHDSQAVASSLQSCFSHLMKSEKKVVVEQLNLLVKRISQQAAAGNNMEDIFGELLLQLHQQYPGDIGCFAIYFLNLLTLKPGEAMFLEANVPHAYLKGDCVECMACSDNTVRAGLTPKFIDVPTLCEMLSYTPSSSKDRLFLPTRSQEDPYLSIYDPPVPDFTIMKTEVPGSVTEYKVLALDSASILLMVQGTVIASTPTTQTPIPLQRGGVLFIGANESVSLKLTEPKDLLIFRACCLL
# cells [19] = type: functional
# [20] = molecular target: Eukaryotic translation initiation factor 4E (Mus musculus, UniProt P63073); experiment: eIF4E–eIF4G protein interaction inhibitors, dose response, biochemical, TR-FRET (AID 855); type: functional;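 further: potency for disrupting eIF4E binding to eIF4GI seen as loss of FRET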
# [21] = molecular target: T5, Voltage-gated N-type calcium channel alpha-1B subunit/Amyloid beta A4 precursor protein-binding family A member 1; type: protein assay; remark: listed apart in the source
# [22] = molecular target: Glucose-6-phosphate 1-dehydrogenase (Homo sapiens, UniProt P11413); experiment: human G6PD enzyme inhibitors, dose response, selectivity assay for P. falciparum G6PD inhibitor project, biochemical, fluorescence (AID 504792); type: functional
# [23] = molecular target: T6, Mannose-6-phosphate isomerase; experiment: human PMI inhibitors, high substrate, primary screen, biochemical, fluorescence intensity, high mannose 6-phosphate (AID 1220)
# Cytochrome P450 2C9 = Cytochrome P450 2C9 (Homo sapiens, UniProt P11712)
# cells [24] = type: functional, cell-based; remark: listed apart in the source
# cells [25] = type: functional, cell-based; remark: listed apart in the source
# cells [26] = type: functional, cell-based; remark: listed apart in the source
# [27] = molecular target: T7, Nuclear receptor subfamily 0 group B member 1 (Homo sapiens, UniProt P51843); type: functional, cell-based;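 further: HEK293T cells transfected with SF-1 and DAX-1 plus StAR promoter luciferase reporter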
# T7 sequence (P51843 whole entry): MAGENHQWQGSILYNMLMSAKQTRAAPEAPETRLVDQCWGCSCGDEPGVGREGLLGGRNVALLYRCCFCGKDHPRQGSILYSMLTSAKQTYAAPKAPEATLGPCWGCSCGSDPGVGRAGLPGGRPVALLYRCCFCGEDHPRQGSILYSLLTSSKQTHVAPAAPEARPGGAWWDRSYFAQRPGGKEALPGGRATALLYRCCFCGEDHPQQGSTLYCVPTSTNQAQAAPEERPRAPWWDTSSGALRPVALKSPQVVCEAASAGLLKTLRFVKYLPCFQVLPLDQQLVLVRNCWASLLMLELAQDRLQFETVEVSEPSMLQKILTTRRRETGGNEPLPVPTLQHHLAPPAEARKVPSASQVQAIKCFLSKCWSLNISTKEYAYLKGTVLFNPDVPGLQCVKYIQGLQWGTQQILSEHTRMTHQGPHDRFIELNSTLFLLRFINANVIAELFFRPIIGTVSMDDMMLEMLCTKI
# [28] = Luminescence-based dose response cell-based high throughput screening assay for cytotoxic compounds using the IEC-6 intestinal epithelial cell line. [Related pubchem assays: 1858 (Summary AID.), 1825 (Counterscreen.), 1907 (Confirmation screen.)]; type: functional
# [29] = cytotoxicity toward DRD oncogenic fibroblasts, dose response, cell-based, non-viral oncogenic, luminescence (AID 1934); type: functional; details: Homo sapiens
# BJ = experiment: cells; type: functional, cell-based; details: Homo sapiens
# T5 sequence (Q00975 whole entry): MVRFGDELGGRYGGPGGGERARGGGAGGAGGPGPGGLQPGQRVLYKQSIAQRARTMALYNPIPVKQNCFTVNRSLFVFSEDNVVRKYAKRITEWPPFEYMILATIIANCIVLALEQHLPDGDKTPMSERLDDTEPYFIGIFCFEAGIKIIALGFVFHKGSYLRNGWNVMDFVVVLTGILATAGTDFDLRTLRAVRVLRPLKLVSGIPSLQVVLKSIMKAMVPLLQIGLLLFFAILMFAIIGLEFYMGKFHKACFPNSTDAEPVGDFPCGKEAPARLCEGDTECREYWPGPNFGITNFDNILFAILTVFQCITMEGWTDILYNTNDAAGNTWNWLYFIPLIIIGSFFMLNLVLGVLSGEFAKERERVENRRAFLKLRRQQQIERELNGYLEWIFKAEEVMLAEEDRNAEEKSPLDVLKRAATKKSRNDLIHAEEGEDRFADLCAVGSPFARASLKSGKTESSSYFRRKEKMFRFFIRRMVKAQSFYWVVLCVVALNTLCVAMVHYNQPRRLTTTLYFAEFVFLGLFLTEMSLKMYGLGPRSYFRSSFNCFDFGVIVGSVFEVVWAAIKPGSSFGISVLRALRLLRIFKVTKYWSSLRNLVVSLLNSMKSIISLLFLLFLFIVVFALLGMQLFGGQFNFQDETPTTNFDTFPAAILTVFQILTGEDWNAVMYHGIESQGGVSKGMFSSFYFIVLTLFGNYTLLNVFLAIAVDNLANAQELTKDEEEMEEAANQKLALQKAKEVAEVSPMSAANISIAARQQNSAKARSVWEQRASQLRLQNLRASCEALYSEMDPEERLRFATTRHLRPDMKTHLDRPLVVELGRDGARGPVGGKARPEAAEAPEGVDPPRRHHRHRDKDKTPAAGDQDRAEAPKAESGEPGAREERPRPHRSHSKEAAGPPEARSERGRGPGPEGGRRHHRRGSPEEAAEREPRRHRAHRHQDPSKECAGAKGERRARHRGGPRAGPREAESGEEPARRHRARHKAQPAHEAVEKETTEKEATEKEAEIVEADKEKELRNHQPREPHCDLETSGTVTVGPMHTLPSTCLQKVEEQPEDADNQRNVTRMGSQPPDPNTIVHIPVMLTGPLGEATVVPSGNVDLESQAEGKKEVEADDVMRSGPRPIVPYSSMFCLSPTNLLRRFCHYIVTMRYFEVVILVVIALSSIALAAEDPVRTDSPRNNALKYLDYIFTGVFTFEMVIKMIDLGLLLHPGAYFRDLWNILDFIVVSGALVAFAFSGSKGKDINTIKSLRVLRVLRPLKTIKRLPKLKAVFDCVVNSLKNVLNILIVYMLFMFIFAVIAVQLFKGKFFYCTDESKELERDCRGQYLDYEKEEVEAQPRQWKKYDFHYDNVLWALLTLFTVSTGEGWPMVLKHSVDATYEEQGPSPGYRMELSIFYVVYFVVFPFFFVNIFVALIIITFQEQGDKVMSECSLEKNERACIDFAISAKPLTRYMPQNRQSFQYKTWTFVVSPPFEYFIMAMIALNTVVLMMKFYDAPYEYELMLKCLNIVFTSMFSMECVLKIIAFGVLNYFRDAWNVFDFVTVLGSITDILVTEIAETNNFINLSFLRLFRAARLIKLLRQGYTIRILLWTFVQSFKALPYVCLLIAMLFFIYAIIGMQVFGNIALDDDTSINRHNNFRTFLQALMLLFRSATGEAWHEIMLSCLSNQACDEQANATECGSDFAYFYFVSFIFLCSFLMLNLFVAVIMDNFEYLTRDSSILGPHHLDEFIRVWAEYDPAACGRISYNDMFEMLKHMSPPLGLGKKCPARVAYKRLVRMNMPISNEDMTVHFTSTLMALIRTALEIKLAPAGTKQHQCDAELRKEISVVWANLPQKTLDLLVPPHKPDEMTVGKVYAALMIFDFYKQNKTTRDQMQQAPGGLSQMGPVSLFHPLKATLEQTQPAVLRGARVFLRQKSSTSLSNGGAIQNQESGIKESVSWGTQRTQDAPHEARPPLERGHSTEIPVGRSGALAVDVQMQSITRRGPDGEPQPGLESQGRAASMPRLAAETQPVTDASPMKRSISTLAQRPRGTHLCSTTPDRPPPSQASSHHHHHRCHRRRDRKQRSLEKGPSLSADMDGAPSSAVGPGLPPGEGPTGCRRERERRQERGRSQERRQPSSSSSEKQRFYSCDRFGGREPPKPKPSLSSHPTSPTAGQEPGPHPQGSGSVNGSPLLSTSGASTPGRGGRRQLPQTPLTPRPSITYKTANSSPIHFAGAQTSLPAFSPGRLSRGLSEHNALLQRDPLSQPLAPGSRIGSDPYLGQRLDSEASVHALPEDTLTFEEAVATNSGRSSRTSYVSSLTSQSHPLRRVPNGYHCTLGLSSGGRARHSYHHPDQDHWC
# T5 sequence (Q02410 whole entry): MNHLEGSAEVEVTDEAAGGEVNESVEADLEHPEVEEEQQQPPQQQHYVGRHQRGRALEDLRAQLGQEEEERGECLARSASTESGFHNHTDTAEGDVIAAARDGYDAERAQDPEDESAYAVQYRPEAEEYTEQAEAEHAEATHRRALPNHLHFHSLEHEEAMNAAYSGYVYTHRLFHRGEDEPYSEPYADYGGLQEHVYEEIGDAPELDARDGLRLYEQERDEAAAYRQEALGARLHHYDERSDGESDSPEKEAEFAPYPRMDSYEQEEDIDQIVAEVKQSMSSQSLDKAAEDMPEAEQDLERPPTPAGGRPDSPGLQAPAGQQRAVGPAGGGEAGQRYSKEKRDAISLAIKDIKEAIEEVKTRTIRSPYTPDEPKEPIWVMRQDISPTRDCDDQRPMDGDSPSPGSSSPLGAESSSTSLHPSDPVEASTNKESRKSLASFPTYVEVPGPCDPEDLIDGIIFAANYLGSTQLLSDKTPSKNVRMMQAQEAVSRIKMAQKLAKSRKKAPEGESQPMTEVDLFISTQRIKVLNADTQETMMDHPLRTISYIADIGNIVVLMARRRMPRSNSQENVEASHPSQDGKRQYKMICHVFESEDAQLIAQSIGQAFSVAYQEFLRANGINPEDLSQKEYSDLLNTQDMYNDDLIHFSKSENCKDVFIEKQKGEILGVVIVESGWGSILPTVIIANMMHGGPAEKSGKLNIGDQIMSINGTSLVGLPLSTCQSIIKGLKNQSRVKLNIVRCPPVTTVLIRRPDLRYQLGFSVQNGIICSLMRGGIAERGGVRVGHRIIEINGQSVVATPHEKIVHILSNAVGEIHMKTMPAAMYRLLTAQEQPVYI
# Sequence of Cytochrome P450 2C9 (P11712 whole entry): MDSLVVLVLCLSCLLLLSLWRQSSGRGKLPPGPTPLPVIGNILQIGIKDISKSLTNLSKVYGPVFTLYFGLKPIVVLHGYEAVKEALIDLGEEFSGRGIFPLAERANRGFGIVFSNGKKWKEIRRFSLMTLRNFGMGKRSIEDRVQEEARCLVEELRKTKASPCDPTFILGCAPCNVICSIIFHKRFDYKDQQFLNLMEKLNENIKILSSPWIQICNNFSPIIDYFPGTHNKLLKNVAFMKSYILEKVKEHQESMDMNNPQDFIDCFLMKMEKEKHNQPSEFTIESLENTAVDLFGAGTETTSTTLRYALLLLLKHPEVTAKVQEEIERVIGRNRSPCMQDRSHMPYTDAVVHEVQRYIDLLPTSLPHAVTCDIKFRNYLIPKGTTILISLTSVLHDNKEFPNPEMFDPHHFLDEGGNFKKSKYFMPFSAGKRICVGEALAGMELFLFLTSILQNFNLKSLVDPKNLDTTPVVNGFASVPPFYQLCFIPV
# Sequence of Eukaryotic translation initiation factor 4E (P63073 whole entry): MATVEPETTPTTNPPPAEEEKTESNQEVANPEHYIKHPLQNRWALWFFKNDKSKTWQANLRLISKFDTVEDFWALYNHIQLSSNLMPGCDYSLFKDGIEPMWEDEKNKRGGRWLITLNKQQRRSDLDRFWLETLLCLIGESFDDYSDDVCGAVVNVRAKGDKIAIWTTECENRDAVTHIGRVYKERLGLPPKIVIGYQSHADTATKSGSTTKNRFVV
# Sequence of Glucose-6-phosphate 1-dehydrogenase (P11413 whole entry): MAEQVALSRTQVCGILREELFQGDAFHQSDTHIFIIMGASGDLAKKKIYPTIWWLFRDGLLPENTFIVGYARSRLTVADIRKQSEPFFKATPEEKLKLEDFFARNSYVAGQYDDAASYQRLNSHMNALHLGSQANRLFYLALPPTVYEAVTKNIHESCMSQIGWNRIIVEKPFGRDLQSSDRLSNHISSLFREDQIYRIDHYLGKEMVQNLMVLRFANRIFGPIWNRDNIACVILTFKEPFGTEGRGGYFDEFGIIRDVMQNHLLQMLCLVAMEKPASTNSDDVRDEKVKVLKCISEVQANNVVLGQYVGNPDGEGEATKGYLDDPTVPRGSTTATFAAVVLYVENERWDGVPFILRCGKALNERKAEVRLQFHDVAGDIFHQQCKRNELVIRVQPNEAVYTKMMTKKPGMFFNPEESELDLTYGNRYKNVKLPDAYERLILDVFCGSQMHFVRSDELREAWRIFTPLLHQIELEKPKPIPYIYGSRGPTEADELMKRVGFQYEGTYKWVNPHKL
smiles,measurement,setting,value
CC(C)(C)OC(=O)NN=C(S)NC1CCCCC1,IC50,[1],> 100 µM (active)
C#CCOCCOCCOCCNc1nc(N2CCN(C(=O)CCCCCCCCCCNC(=O)[C@@H]([C@H](C)O)n3cc(C)nn3)CC2)nc(N2CCN(C(=O)CCCCCCCCCCNC(=O)[C@@H]([C@H](C)O)n3cc(C)nn3)CC2)n1,IC50,cells [2],15.1 µM (active)
COc1ccc(N(C(=O)C2CCCCC2)S(=O)(=O)c2cccc3cccnc23)cc1,IC50,[3],> 35 µM (not active)
same,IC50,[4],> 35 µM (not active)
O=C(Nc1ccccc1)O/N=C/c1ccc(F)cc1,EC50,H4,8.27 µM (active)
same,EC50,[5],0.372 µM (active)
same,EC50,[6],0.477 µM (active)
same,EC50,[7],< 0.1 µM (active)
same,IC50,Protein skinhead-1,> 100 µM (inactive)
same,EC50,[8],< 0.1 µM (active)
same,AC50,HeLa,54.2 µM (active)
same,EC50,[9],0.321 µM (active)
N=C(N)N/N=C/c1ccccc1,EC50,cells [10],0.112 µM (active)
same,EC50,[11],> 3.32 µM (active)
same,IC50,cells [12],> 29.9 µM (inactive)
same,EC50,[13],< 0.1 µM (active)
same,EC50,cells [14],> 29.9 µM (inactive)
same,IC50,[15],1.67 µM (active)
same,EC50,[16],> 60 µM (not active)
NC(=O)C1=C[C@H](C2CCCCC2)C[C@H](OCc2ccc(CO)cc2)O1,EC50,[5],> 12 µM (not active)
same,EC50,[6],0.326 µM (active)
same,EC50,[8],< 0.1 µM (inconclusive)
same,IC50,Vero,> 25 µM (active)
same,EC50,[9],0.558 µM (active)
CCOC(=O)c1c(CSc2ccccc2)n(C)c2ccc(O)c(CN3CCOCC3)c12,IC50,[3],1.94 µM (active)
same,IC50,[4],> 35 µM (not active)
COc1cc(/N=c2\ssnc2Cl)cc(OC)c1,IC50,[17],6.42 µM (active)
same,IC50,[18],19.6 µM (active)
same,IC50,cells [19],39.2 µM (active)
same,IC50,[20],22.6 µM (active)
same,IC50,[21],0.738 µM (active)
same,IC50,[22],> 80 µM (inactive)
Cc1cc(C)n(-c2nnc(N3CCN(c4ccc(F)cc4)CC3)nn2)n1,IC50,[18],> 50 µM (not active)
same,IC50,[23],> 50 µM (not active)
CC1=NN(c2ccccc2)C(=O)/C1=C\c1c(C)[nH]n(-c2ccccc2)c1=O,AC50,Cytochrome P450 2C9,2.51 µM (inconclusive)
same,IC50,[1],> 100 µM (active)
O=C(N/N=C/C(Br)=C\c1ccccc1)c1[nH]nc2c1CCC2,EC50,cells [24],17.8 µM (active)
same,IC50,cells [25],> 67.5 µM (inactive)
same,EC50,cells [26],> 350 µM (not active)
same,IC50,[27],> 0.834 µM (active)
same,IC50,[28],0.183 µM (active)
same,EC50,[29],0.3 µM (inconclusive)
same,EC50,BJ,0.223 µM (inconclusive)
